In patent US20250084079A1, “COMPOSITIONS AND METHODS FOR INHIBITION OF RAS” (TheRas, Inc., priority 2022, published 2025):

Key:
GDP KRAS G12D = GDP KRAS G12D (Homo sapiens, UniProt P01116, G12D); experiment: SPR binding affinity to GDP KRAS G12D (Biacore S200); conditions: GDP-loaded KRAS G12D, steady state KD
Experimental: (§1) The affinity of compounds of the present disclosure to RAS ligands was assessed using surface plasmon resonance (SPR) binding analysis using a Biacore S200 (GE Healthcare Life Sciences) instrument. The SPR binding analysis employed the following reagents and protocols:
(§2) Buffer preparation: To make 0.5 L add required amounts of stocks for: 20 mM Hepes, 150 mM NaCl, 5 mM MgCl2, 1 mM TCEP, 0.05% P20, and 5 μM nucleotide. Adjust pH to 7.4, then bring volume up to 475 mL 1.05×Filter through 0.2 μm cellulose acetate membrane. Remove a volume of buffer as No DMSO Buffer 1.05× and set aside. Add appropriate volume of DMSO to buffer to a final concentration 5% DMSO.
(§3) Chip preparation: Prime 2× with 5% DMSO buffer. Allow system to flow on standby throughout the day.
(§4) Sample preparation: Make a 20× compound solution in 100% DMSO of highest compound concentration to be screened (2 mM for final 100 μM compound). Add appropriate volume of 1.05× buffer without DMSO to give 5% DMSO and mix by pipetting. Centrifuge sample 18,000×g 5 min 25° C. Make appropriate serial dilutions from the highest concentration into 5% DMSO running buffer for the concentrations needed. Prepare 5.8% DMSO and 4.5% DMSO solvent correction solutions using buffer without DMSO. Make two more solvent corrections by mixing 200 μL 4.5% 500 μL 5.8%, and 400 μL 4.5% 300 μL 5.8%
(§5) Capture Avi-taggedprotein: Thaw protein stock on ice, aliquot into single use size and freeze at −80° C. for future use. Dilute protein (avi-KRAS WT, avi-KRAS-G12D, avi-KRAS-G12V, or avi-RhoA) appropriately, to 20 μg/mL to begin in 5% DMSO buffer. Manually inject at 10 μL/min 12 second contact time. Adjust flow and or contact time to achieve desired level of captured protein. When desired level of protein is captured, flow for 10 minutes to stabilize signal.
(§6) General Binding Level Screen Method: Choose LMW screen template in Fragment/LMW subfolder in Binding screen folder. 30 μL/min high performance injection, 60 sec contact and dissociation time, carry over control, extra wash with 50% DMSO for each injection. Fifteen Startup cycles to condition. Control samples before and after compound samples. For GppNHp loaded KRAS, control is 20 μM Raf1 RBD domain. Adjust this sample to final 5% DMSO to match running buffer. This process is performed at a temperature of 25° C. using a single chip per experiment.
(§7) Binding affinity determination: Compounds selected from the binding level screen are evaluated in a dose response to determine the binding affinity (KD). Serial dilutions of compounds are prepared and injected over the sensor chip using a flow rate of 30 μL/min with a 60 second contact and dissociation time. After double referencing of the sensorgrams the total level of compound binding at each concentration is calculated. The steady state binding affinity is calculated with a Langmuir binding model assuming a 1:1 interaction with a constrained Rmax using the BIAevaluation software.

[1] = target: T1, Avi-KRAS WT (1-169) GppNHp/RAF1 RBD-3xFLAG (52-151) (Homo sapiens, UniProt P01116); experiment: RAS-effector PPI HTRF disruption assay, Raf1-GppNHp-KRAS WT; assay type: biochemical
T1 construct: 50 nM Avi-KRAS WT (1-169) GppNHp
T1 sequence (P01116 1-169 isoform P01116-2): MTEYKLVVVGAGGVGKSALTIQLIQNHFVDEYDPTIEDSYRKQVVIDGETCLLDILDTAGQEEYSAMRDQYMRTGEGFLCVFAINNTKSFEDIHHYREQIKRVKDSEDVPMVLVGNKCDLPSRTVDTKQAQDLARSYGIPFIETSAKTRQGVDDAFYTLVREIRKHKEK
Summary of the method: (§8)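 Compounds titrated 100-0.02 μM (3-fold, 10 points) against GppNHp-loaded KRAS-effector complexes: PI3KCA with G12D/Q25A at 375 nM; RAF1 RBD with G12D at 100 nM, G12V or WT at 50 nM. Two 1 h room-temperature incubations; HTRF signal normalised to DMSO as 100%, IC50 derived.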

[2] = tested on: pERK in GP2d cells (KRAS G12D); experiment: Cell-based pERK HTRF assay in GP2d cell; conditions: GP2d, 1 h, 60 min incubation
Summary of the method: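 Phospho-ERK was measured by HTRF in lysates of KRAS G12D GP2d cells after 60 min of compound exposure. Nine concentrations were tested, half-log apart from a 1 μM top, with 0.25% DMSO throughout. Cells had been plated the previous day in DMEM with 10% FBS, and the detection antibodies were incubated 4–24 h at room temperature before reading.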

[3] = target: T2, Avi-KRAS G12D (1-169) GppNHp/RAF1 RBD-3xFLAG (52-151) (Homo sapiens, UniProt P01116, G12D); experiment: RAS-effector PPI HTRF disruption assay, Raf1-GppNHp-KRAS G12D; assay type: biochemical
T2 construct: 100 nM Avi-KRAS G12D (1-169) GppNHp
T2 sequence (P01116 1-169 isoform P01116-2 G12D): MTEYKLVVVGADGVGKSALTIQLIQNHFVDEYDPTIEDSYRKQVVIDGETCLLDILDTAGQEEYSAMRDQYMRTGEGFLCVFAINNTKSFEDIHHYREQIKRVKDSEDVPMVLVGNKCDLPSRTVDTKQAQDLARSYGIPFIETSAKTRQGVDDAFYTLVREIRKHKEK
Summary of the method: as §8

GppNHp KRAS G12D = GppNHp KRAS G12D (Homo sapiens, UniProt P01116, G12D); experiment: SPR binding affinity to GppNHp KRAS G12D (Biacore S200); conditions: GppNHp-loaded KRAS G12D, steady state KD
Chain of GppNHp KRAS G12D (P01116 1-188 isoform P01116-2 G12D): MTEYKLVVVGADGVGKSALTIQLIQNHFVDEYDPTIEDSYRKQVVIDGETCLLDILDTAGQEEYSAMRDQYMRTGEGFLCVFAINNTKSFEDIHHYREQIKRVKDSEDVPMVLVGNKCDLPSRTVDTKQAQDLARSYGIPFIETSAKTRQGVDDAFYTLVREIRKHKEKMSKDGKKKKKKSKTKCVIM
Experimental: as §1, §2, §3, §4, §5, §6, §7

[4] = target: T3, Avi-KRAS G12V (1-169) GppNHp/RAF1 RBD-3xFLAG (52-151) (Homo sapiens, UniProt P01116, G12V); experiment: RAS-effector PPI HTRF disruption assay, Raf1-GppNHp-KRAS G12V; assay type: biochemical
T3 construct: 50 nM Avi-KRAS G12V (1-169) GppNHp
T3 sequence (P01116 1-169 isoform P01116-2 G12V): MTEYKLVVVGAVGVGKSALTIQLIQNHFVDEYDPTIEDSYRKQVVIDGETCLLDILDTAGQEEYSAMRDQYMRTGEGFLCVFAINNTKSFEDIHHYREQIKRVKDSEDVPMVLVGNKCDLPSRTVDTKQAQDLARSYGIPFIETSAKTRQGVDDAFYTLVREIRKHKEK
Summary of the method: as §8

[5] = target: T4, Avi-KRAS G12D/Q25A (1-169) GppNHp/3xFLAG-PI3KCA (157-299) (Homo sapiens, UniProt P01116, G12D/Q25A); experiment: RAS-effector PPI HTRF disruption assay, PI3KCA-GppNHp-KRAS G12D/Q25A; assay type: biochemical
T4 construct: 375 nM Avi-KRAS G12D/Q25A (1-169) GppNHp
T4 sequence (P01116 1-169 isoform P01116-2 G12D/Q25A): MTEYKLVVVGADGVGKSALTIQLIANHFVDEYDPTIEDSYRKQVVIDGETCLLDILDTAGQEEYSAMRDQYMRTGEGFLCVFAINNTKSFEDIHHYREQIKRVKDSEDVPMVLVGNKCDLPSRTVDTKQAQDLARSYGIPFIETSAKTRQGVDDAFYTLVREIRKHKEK
Summary of the method: as §8

Chain of GDP KRAS G12D (P01116 1-188 isoform P01116-2 G12D): as the sequence (P01116 1-188 isoform P01116-2 G12D) above

Kd (GDP KRAS G12D) | IC50 [1] | IC50 [2] | IC50 [3] | Kd (GppNHp KRAS G12D) | IC50 [4] | IC50 [5] | Compound
≤ 100 nM | 1000 to 10000 nM | ≤ 100 nM | 100 to 1000 nM | 100 to 1000 nM | 1000 to 10000 nM | 1000 to 10000 nM | C[C@@H]1C[C@@H](Oc2nc(OC[C@@]34CCCN3C[C@H](F)C4)nc3c(F)c(-c4ccc(F)c5sc(N)nc45)c(C(F)(F)F)cc23)CN1 (atropisomer, axis not shown) [Compound 20]
≤ 100 nM | 100 to 1000 nM | ≤ 100 nM | 100 to 1000 nM | 100 to 1000 nM | 1000 to 10000 nM | 100 to 1000 nM | C[C@H]1NCCC1Oc1nc(OC[C@@]23CCCN2C[C@H](F)C3)nc2c(F)c(-c3ccc(F)c4sc(N)nc34)c(C(F)(F)F)cc12 (stereo partly drawn) [Compound 19]

Compound | Kd (GDP KRAS G12D) | IC50 [1] | IC50 [2] | IC50 [3] | Kd (GppNHp KRAS G12D) | IC50 [4] | IC50 [5]
Nc1nc2c(-c3c(C(F)(F)F)cc4c(OC5CC6CC[C@H](C5)N6)nc(OCC56CCCN5CCC6)nc4c3F)ccc(F)c2s1 (stereo partly drawn) [Compound 26] | ≤ 100 nM | ≤ 100 nM | > 1000 nM | ≤ 100 nM | ≤ 100 nM | 1000 to 10000 nM | 100 to 1000 nM
